Test results published in paper doi:10.1101/2021.04.29.441652v1 (biorxiv, 2021).

Target: human σ2 receptor (TMEM97) (Homo sapiens, UniProt Q5BJF2)
Test: biochemical
Type: Expi293 membranes
Conditions: read-out: % of control remaining

Sequence of human σ2 receptor (TMEM97) (Q5BJF2 whole entry): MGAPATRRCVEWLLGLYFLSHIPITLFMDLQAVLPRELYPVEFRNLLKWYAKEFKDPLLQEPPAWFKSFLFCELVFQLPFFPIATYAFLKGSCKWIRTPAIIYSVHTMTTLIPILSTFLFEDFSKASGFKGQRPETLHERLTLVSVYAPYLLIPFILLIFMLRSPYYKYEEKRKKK

remaining activity at 1 µM [%] | Structure (SMILES)
104 | O=C([C@H](O)c1cccc([N+](=O)[O-])c1)N1CC[C@H](N2CCCC2)C1 [ZINC000825615260]
78.8 | CS[C@@H]1CCN(C[C@@H](O)c2ccccc2C(F)(F)F)C1 [ZINC000830877226]
28.7 | C[C@@H]1CCC[C@H](CCN2CCC([C@H](O)c3ncc[nH]3)CC2)C1 [ZINC000839577413]
16.2 | OC[C@@H](CNC[C@H](O)c1ccc(F)c(Br)c1)CC1CCCC1 [ZINC000843092160]
43.6 | Fc1ccc(C2OCCO2)c(Cl)c1CNC1CC2(CCC2)C1 [ZINC000846106280]
59.3 | CN1CC[C@]2(CCN(C(=O)C(=O)Nc3cccc4nonc34)C2)C1 [ZINC000847525041]
115 | Fc1ccc(NC(=S)NC2CCN([C@H]3CCOC3)CC2)cc1 [ZINC000853031922]
204 | CN1CCN(C2CCN(c3nc(N)c4ccccc4n3)CC2)CC1 [ZINC000866213504]
27.7 | O[C@@H](CN1CC[C@@H](c2ccccc2F)C1)CC1(O)CCCCC1 [ZINC000878084395]
113 | NC(=O)C1(N2CCCCC2)CCN(CC(=O)NCC2CCC2)CC1 [ZINC000880249690]
110 | C=CCC1(O)CCN([C@H](C)C(=O)N[C@@H](C)c2ccc(Cl)cc2)CC1 [ZINC000886762228]
24.1 | Cc1cc(C(=O)CN2CC[C@@H]([C@H]3CCCO3)C2)c(C)n1C1CC1 [ZINC000886836194]
116 | CO[C@@H]1CN(C(=O)NCc2ccnc(N3CCN(C)CC3)c2)CCO1 [ZINC000891830660]
95.1 | Cc1cccc2sc(N3CCN(CCO)[C@H](C)C3)nc12 [ZINC000893277758]
90.9 | C[C@@H]1CCCN1CCNC(=O)N1CCC[C@@H]1[C@@H]1CCCC[C@@]1(C)O [ZINC000897504395]
5.1 | FC(F)(F)c1ccnc([C@H]2CCN(C[C@@H]3C[C@H]3c3ccccc3)C2)n1 [ZINC000897616680]
92.2 | O=C(CN[C@H]1CCNC12CCC2)NCCN1CCc2ccccc21 [ZINC000903470913]
45.5 | CC(C)(CN1C(=O)N2CCC[C@@H]3C[C@@]32C1=O)N1CCc2ccccc2C1 [ZINC000924470947]
104 | O=C1CCCCN1C1CCN(C[C@H](O)C[C@]2(O)CCOC2)CC1 [ZINC000929842198]
75.9 | O=C1[C@@H](N2CC[C@@H](C3OCCO3)C2)CCN1c1cccc(Br)c1 [ZINC000932000298]
69.5 | CCOC(=O)[C@@H]1CCN(C[C@@H](O)COc2cccc(C)c2)C1 [ZINC000932649435]
34 | O[C@H](CN1CC[C@@H](Cc2nccs2)C1)c1c(F)cccc1F [ZINC000934332177]

remaining activity at 1 µM [%] | Structure (SMILES)
82.7 | C[C@H]1CCCN1CC(=O)N(C)[C@H]1CCN(C(=O)C2CCOCC2)C1 [ZINC000936344871]
112 | CCN1CC[C@@H](NC(=O)c2ccnc(-n3cncn3)c2)C[C@@H]1C [ZINC000948091407]
111 | CN(C(=O)c1cccnn1)C1CN(C(=O)[C@H]2CCC[C@H]3CCCN32)C1 [ZINC000955102158]
112 | CCC(=O)N1CCN([C@H]2CCN(C(=O)c3c[nH]c(=O)cn3)C2)CC1 [ZINC000956566890]
33 | O=C(C1CCCC1)N1CCC[C@H]([C@@H]2CCN(C/C=C\Cl)C2)C1 [ZINC000961091031]
92.8 | COc1ccc(C(=O)N[C@@H]2CN(C(=O)C3(C)CCC3)C[C@@H]2O)nn1 [ZINC000970553575]
90.9 | Cc1cc(C(=O)N2CC[C@H](N(C)Cc3ccc(C)c(C)c3)C2)on1 [ZINC000971070823]
63.4 | CN(C[C@H]1CCCCO1)[C@@H]1CCN(C(=O)c2nc(Cl)cs2)C1 [ZINC000972168981]
111 | C[C@@H]1CCN(CC(=O)N[C@H]2C[C@H](NC(=O)c3cnnc(O)c3)C2)C1 [ZINC000973375109]
48.4 | O=C(C1CC2(CCC2)C1)N1CCCN(C[C@@H](O)c2ccccc2)CC1 [ZINC000981787500]
116 | CCc1noc(C)c1C(=O)NC1CN(C(=O)[C@H]2CCCCN2C)C1 [ZINC000991393621]
102 | CN1CC[C@H](C(=O)NC2CN(C(=O)Cc3ccc(F)cn3)C2)CC1=O [ZINC000995125582]
87.9 | Cc1n[nH]cc1C(=O)NC1CN(C(=O)[C@H]2C[C@@H]3CCCCN3C2)C1 [ZINC000997292482]
81.3 | O=C(NCC1CN(C(=O)[C@H]2CC[C@H]3CCCCN32)C1)c1cnccn1 [ZINC001000730978]
92.1 | O=C(NCC1CCN([C@H]2CCNC2=O)CC1)c1ccn(C(F)F)n1 [ZINC001001445660]
109 | Cc1cccc(F)c1C(=O)NCC1CCN(CCn2cncn2)CC1 [ZINC001002178741]
72.3 | O=C(Cn1cnnn1)N1CC(CNC(=O)C23CCCN2CCC3)C1 [ZINC001003297636]
85.5 | CC[C@@H](C(N)=O)N1CCC(NC(=O)[C@H]2Cc3ccc(Cl)cc32)CC1 [ZINC001004070100]
126 | C[C@@H](NC(=O)c1cnnn1C)C1CN(C(=O)C23CCCN2CCC3)C1 [ZINC001006004942]
87.4 | O=C1NCC[C@@H]1C(=O)N[C@H]1CCN(CCn2cc(Cl)cn2)C1 [ZINC001015510639]
106 | C[C@@]1(C(=O)N[C@H]2CC23CCN(CC(=O)NC2CC2)CC3)CCNC1=O [ZINC001016825715]
120 | Cn1ccc(N2CC[C@@H](N[C@H]3CCN(C(=O)CC4CCC4)C3)C2=O)n1 [ZINC001018665695]

Further lines, the compound ahead of its results:

Structure (SMILES) | remaining activity at 1 µM [%]
C[C@H]1CN/C(=N/CCCc2c(Cl)cccc2Cl)N1 [ZINC000849049798] | 8.7
CON(C)CCNC(=O)C(=O)Nc1ccc2c(c1)C(=O)N(C)C2=O [ZINC000850493342] | 136
C[C@H](Nc1nc(N)nc(N)n1)c1ccccc1C(F)(F)F [ZINC000858362097] | 142
Cc1cc(N(C)C)ccc1CNC(=O)C(=O)NC[C@@H]1COCCN1 [ZINC000861751799] | 106
CCC1(N2CCOCC2)CCN(C(=O)C2=NN(C)C(=O)CC2)CC1 [ZINC000863492725] | 179
C[C@H]1CCC[C@H](NC(=O)C(=O)N2CCC(N3CCN(C)CC3)CC2)CC1 [ZINC000875242850] | 76.2
CC[C@H](CO)N1CCN(c2cc(Cl)c3cnn(C)c3n2)CC1 [ZINC000892713700] | 99.5
CC[C@@H](C)N1CCN(c2nc(N)nc(C(F)(F)C(F)(F)F)n2)CC1 [ZINC000894101819] | 35
CCC(C)(C)N1CCN(c2nc(N)nc(C(F)(F)C(F)(F)F)n2)CC1 [ZINC000894427229] | 38.7
CCC(C)(C)N1CCN(c2cc(C(F)F)ncn2)CC1 [ZINC000894429059] | 33.6
C[C@@H]1CN(C(=O)C2CN(C)CCN(C)C2)CC(C)(C)O1 [ZINC000906421824] | 127
CS(=O)(=O)N1CC(C(=O)N2CC(=O)N(CC(F)(F)F)C2)C1 [ZINC000907721339] | 119
Cc1ccc(NC(=O)C23CCC(CC2)N3)cc1[N+](=O)[O-] [ZINC000911907143] | 93.1
CCn1ncc2c1CCC[C@@H]2N[C@@H](C)Cc1ccccn1 [ZINC000925887162] | 27.4
Cc1csc2nc(CN[C@](C)(CO)Cc3ccc(F)cc3)cc(=O)n12 [ZINC000933438523] | 28.1
C[C@H]1CCCN1CC(=O)N(C)[C@H]1CCN(C(=O)CC(C)(C)O)C1 [ZINC000937267298] | 111
Cc1nc(C)c(CC(=O)N2CC[C@H](NC(=O)c3cnn[nH]3)C2)c(O)n1 [ZINC000938242679] | 107

Structure (SMILES) | remaining activity at 1 µM [%]
Cc1cc(NC(=O)C(=O)N2CC[C@@H](NC(=O)c3cncn3C)C2)no1 [ZINC000941361883] | 111
Cn1nc(C(=O)N[C@@H]2CCN(C(=O)Cc3cscn3)C2)ccc1=O [ZINC000942457739] | 89.4
Cc1cc(C)nc(C(=O)N2CC[C@H]2CNC(=O)[C@@H]2CCN(C)C2)c1 [ZINC000950078544] | 108
CN(C(=O)c1c[nH]c(=O)cn1)C1CN(C(=O)c2n[nH]c3c2CCC3)C1 [ZINC000955144887] | 96.9
Cc1c(C(=O)N[C@@H]2CN(C(=O)C3=COCCC3)C[C@@H]2O)cnn1C [ZINC000961583379] | 91.1
O=C([C@H]1CCOC1)N1CCOC2(C1)CN(C(=O)[C@@]1(F)CCOC1)C2 [ZINC000965338365] | 99.1
CCc1c(C(=O)N[C@@H]2CN(C(=O)c3n[nH]cc3C)C[C@@H]2O)cnn1C [ZINC000968717635] | 94.6
COCCN1C[C@H](C(=O)N[C@H]2C[C@H](NC(=O)c3cn[nH]c3)C2)CC1=O [ZINC000973057271] | 111
Cn1nncc1C(=O)NC[C@H]1CC[C@@H](NC(=O)c2cnns2)C1 [ZINC000981250423] | 97.2
CC(C)=CC(=O)N1CC[C@@H](CNC(=O)c2ccn(CCN(C)C)n2)C1 [ZINC000982403760] | 104
CCn1ncnc1CN1CCCN(C(=O)C[C@H]2CC(=O)NC2=O)CC1 [ZINC000989806749] | 118
Cc1c(C(=O)NC2CN(C(=O)c3cnns3)C2)ccc2cncn12 [ZINC000995014137] | 123
CC(C)NC1CCN(C(=O)Cn2cnc(C(N)=O)n2)CC1 [ZINC000996610565] | 114
Cc1cnoc1C(=O)NC1CN(C(=O)[C@@H]2CCN(C)S2(=O)=O)C1 [ZINC000998978244] | 98.3
CCN1CC[C@@H](N2CCC(NC(=O)c3cncnc3C)CC2)C1=O [ZINC001002391793] | 90.1
CCc1nnsc1C(=O)NCC1CN(C(=O)[C@H]2CCCN2C)C1 [ZINC001003018745] | 85.7
